According to PMC4149317 (Acta biomaterialia, 2013):

Assays:
VEGF = settings: soluble VBP vs soluble VBPWT; ref [27]; cited from earlier work
VEGF (rhVEGF165) [1] = target: T1, VEGF (rhVEGF165) (Homo sapiens, UniProt P15692); assay: VEGF binding to PEG microspheres in serum-containing and albumin-only solutions; settings: 0.4% peptide density, albumin-only solution (1.25 wt.% BSA in PBS); p < 0.05 (Fig. 2D)
T1 sequence (P15692 1-191 isoform P15692-4): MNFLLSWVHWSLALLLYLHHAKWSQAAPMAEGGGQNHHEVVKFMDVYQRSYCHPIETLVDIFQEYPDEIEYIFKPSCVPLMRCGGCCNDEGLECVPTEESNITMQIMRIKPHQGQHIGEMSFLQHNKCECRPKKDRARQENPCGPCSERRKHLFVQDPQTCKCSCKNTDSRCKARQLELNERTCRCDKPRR

[2] = ref [27], cited from earlier work
endothelial cells = settings: VEGF supplement to endothelial cells; ref [30]; cited from earlier work
VEGF (rhVEGF165) [3] = target: T1, VEGF (rhVEGF165); assay: Heparin modulation of VEGF binding to microspheres

CEFdAdYdLdIDFNWEYPASK [VBP]
VEGF binding affinity of soluble peptide (VEGF): higher than that of soluble VBPWT | KD, VBP-VEGF vs VBPWT-VEGF, albumin-only solution (VEGF (rhVEGF165) [1]): exhibited a lower KD than VBPWT-VEGF | Stability against protease-mediated degradation ([2]; four D-substituted amino acids vs wild-type): enhanced peptide stability against protease-mediated degradation | Serum stability of soluble peptide ([2]; soluble VBP vs soluble VBPWT): higher than that of soluble VBPWT

VEGF
Endothelial proliferation below 1 ng ml^−1 VEGF (endothelial cells): proliferation is decreased at VEGF concentrations below 1 ng ml^−1 | VEGF concentration of maximal endothelial proliferation (endothelial cells): 1 to 1.2 ng/mL

heparin
Effect of soluble heparin on specificity of VEGF binding (VEGF (rhVEGF165) [3]; 10 µg ml^−1 UFH in albumin-containing solution, 1.6% peptide density (Fig. 3C)): reduced non-specific binding of VEGF | Effect of soluble heparin on VEGF binding affinity (VEGF (rhVEGF165) [3]; physiologic level of soluble heparin, UFH 10 µg ml^−1): increased VEGF binding affinity
